Molecules are shown by their SMILES. Starred links: 1 amine or outer side, 2 acyl side, 3 side chain; linkers in the order of their positions; H or OH if unused. Positions of bridges follow the written chain, without caps; N, C: chain ends. Non-standard residues stand in square brackets, D forms with d. Residues, ends and D or L forms follow the SMILES beside them. *: point of attachment. hPhe(3,5-F2-4-CF3) = N[C@@H](CCc1cc(F)c(C(F)(F)F)c(F)c1)C(=O)O; hPhe(3-Cl-4-CF3) = N[C@@H](CCc1ccc(C(F)(F)F)c(Cl)c1)C(=O)O; hPhe(3-F,4-CF3) = N[C@@H](CCc1ccc(C(F)(F)F)c(F)c1)C(=O)O; NMePhe(4-CF3) = CN[C@@H](Cc1ccc(C(F)(F)F)cc1)C(=O)O; NMePhe(2-Cl) = CN[C@@H](Cc1ccccc1Cl)C(=O)O; NMePhe(4-F) = CN[C@@H](Cc1ccc(F)cc1)C(=O)O; NMedβ3hAla = C[C@H](CC(=O)[*:2])N(C)[*:1]; NMeGly(cPent) = CN[C@H](C(=O)O)C1CCCC1; Phe(3-I) = N[C@@H](Cc1cccc(I)c1)C(=O)O; Pro(4,4-F2) = O=C(O)[C@@H]1CC(F)(F)CN1; NMeCha = CN[C@@H](CC1CCCCC1)C(=O)O; NMeChg = CN[C@H](C(=O)O)C1CCCCC1; NMeF = CN[C@@H](Cc1ccccc1)C(=O)O; NMeI = CC[C@H](C)[C@H](NC)C(=O)O; dNMeF = CN[C@H](Cc1ccccc1)C(=O)O; NMeD = CN[C@@H](CC(=O)O)C(=O)O; NMeL = CN[C@@H](CC(C)C)C(=O)O; NMeV = CN[C@H](C(=O)O)C(C)C; NMeA = CN[C@@H](C)C(=O)O; NMeAib = CNC(C)(C)C(=O)O; Piperidide = C1CCN(*)CC1; Pra = C#CC[C@H](N)C(=O)O; Pyrrolidide = C1CCN(*)C1; Ac5c = NC1(C(=O)O)CCCC1; Aze = O=C(O)[C@@H]1CCN1; Ac4c = NC1(C(=O)O)CCC1; Sar = CNCC(=O)O

This note sets out measurements from patent US12371454B2, “Cyclic peptide compound having Kras inhibitory action” (priority 2019, dated 2025).

T1 sequence (P01116 1-188 isoform P01116-2 G12D): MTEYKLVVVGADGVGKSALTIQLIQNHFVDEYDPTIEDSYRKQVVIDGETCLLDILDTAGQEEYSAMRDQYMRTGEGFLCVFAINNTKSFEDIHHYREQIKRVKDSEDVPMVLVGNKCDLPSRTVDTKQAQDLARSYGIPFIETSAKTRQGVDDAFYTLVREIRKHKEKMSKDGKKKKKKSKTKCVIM

This test addresses T1, Kras and SOS1 (biotin-tagged human Kras loaded with GDP, His-tagged human SOS1) (Homo sapiens, UniProt P01116, G12D).
T1 construct: made in house; host or cells: E. coli (stated for Kras only)
Kind of test: Protein-protein interaction inhibition between Kras and SOS1 (KrasGl2D-SOS PPI) using AlphaScreen. It counts as binding. The following applies: AlphaScreen; biotin-tagged human Kras loaded with GDP, His-tagged human SOS1; read-out: KRAS G12D-SOS PPI IC50. The procedure, abridged: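 Binding between SOS1 and Kras is detected as bead-proximity luminescence: illuminate Ni-conjugated donors (680 nm), collect 520-620 nm emission from streptavidin-conjugated acceptors; Kras carries biotin and GDP loaded after purification, SOS1 carries a His tag.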
A general note: In Alpha technology, singlet oxygen from a donor bead excites a nearby acceptor bead.
The term IC50 denotes the concentration at which inhibition is half-maximal. `CC[C@H](C)[C@@H]1NC(=O)[C@H](CC(C)C)N(C)C(=O)C[C@@H](C)N(C)C(=O)[C@H](C2CCCC2)N(C)C(=O)C2(CCCC2)NC(=O)[C@@H]2CC(F)(F)CN2C(=O)[C@H](CCc2cc(F)c(C(F)(F)F)c(F)c2)NC(=O)CN(C)C(=O)[C@H](CC2CCCCC2)N(C)C(=O)[C@@H]2CCN2C(=O)[C@H](C)N(C)C1=O` [Compound 628] (cyclo([Ac5c][NMeGly(cPent)][NMedβ3hAla][NMeL]I[NMeA][Aze][NMeCha][Sar][hPhe(3,5-F2-4-CF3)][Pro(4,4-F2)])): the IC50 worked out at 0.02 µM. As for `C#CC[C@@H]1NC(=O)[C@H](Cc2cccc(I)c2)NC(=O)CN(C)C(=O)[C@H](Cc2ccc(F)cc2)N(C)C(=O)CN(C)C(=O)CN(C)C(=O)[C@H]([C@@H](C)CC)NC(=O)[C@H](CC(C)C)N(C)C(=O)C[C@@H](C(=O)N2CCCCC2)N(C)C(=O)[C@H](CC(C)C)NC(=O)C(C)(C)N(C)C1=O` [Compound 1327] ([NMeL]I[Sar][Sar][NMePhe(4-F)][Sar][Phe(3-I)][Pra][NMeAib]L[NMeD]-Piperidide; lactam N-11), the IC50 was determined as 0.072 µM. In the case of `C#CC[C@@H]1NC(=O)[C@H](Cc2cccc(I)c2)NC(=O)CN(C)C(=O)[C@H](Cc2ccc(C(F)(F)F)cc2)N(C)C(=O)[C@@H]2CCN2C(=O)CN(C)C(=O)[C@H]([C@@H](C)CC)NC(=O)[C@H](CC(C)C)N(C)C(=O)C[C@@H](C)N(C)C(=O)[C@H](CC(C)C)NC(=O)C(C)(C)N(C)C1=O` [Compound 1427] (cyclo([Aze][NMePhe(4-CF3)][Sar][Phe(3-I)][Pra][NMeAib]L[NMedβ3hAla][NMeL]I[Sar])), the IC50 was determined as 0.25 µM. For `CC[C@H](C)[C@@H]1NC(=O)[C@H](CC(C)C)N(C)C(=O)C[C@@H](C(=O)N2CCCCC2)N(C)C(=O)[C@H](C2CCCCC2)N(C)C(=O)C2(CCCC2)NC(=O)[C@H](Cc2ccccc2)N(C)C(=O)[C@H](CCc2ccc(C(F)(F)F)c(Cl)c2)NC(=O)CN(C)C(=O)[C@H](CC2CCCCC2)N(C)C(=O)[C@@H]2CCN2C(=O)CN(C)C1=O` [Compound 527] ([NMeL]I[Sar][Aze][NMeCha][Sar][hPhe(3-Cl-4-CF3)][NMeF][Ac5c][NMeChg][NMeD]-Piperidide; lactam N-11) the value was 0.038 µM. Regarding `CC[C@H](C)[C@@H]1NC(=O)[C@H](CC(C)C)N(C)C(=O)C[C@@H](C(=O)N2CCCC2)N(C)C(=O)[C@H](CC(C)C)NC(=O)C(C)(C)N(C)C(=O)[C@H](CC(C)C)NC(=O)[C@H](CCc2ccc(C(F)(F)F)c(F)c2)NC(=O)CN(C)C(=O)[C@H](CC2CCCCC2)N(C)C(=O)CN(C)C(=O)CN(C)C1=O` [Compound 312] ([NMeL]I[Sar][Sar][NMeCha][Sar][hPhe(3-F,4-CF3)]L[NMeAib]L[NMeD]-Pyrrolidide; lactam N-11), the IC50 worked out at 0.001 µM. To `CC[C@H](C)[C@@H]1NC(=O)[C@H](C)N(C)C(=O)C[C@@H](C)N(C)C(=O)[C@H](CC(C)C)NC(=O)C(C)(C)N(C)C(=O)[C@H](CC(C)C)NC(=O)[C@H](CCc2ccc(C(F)(F)F)c(Cl)c2)NC(=O)CN(C)C(=O)[C@H](CC2CCCCC2)N(C)C(=O)[C@@H]2CCN2C(=O)CN(C)C1=O` [Compound 1387] (cyclo([Aze][NMeCha][Sar][hPhe(3-Cl-4-CF3)]L[NMeAib]L[NMedβ3hAla][NMeA]I[Sar])) belongs 0.014 µM; to `CC[C@H](C)[C@@H]1NC(=O)[C@H](C)N(C)C(=O)C[C@@H](C(=O)N(C)C)N(C)C(=O)[C@H]([C@@H](C)CC)N(C)C(=O)C2(CCCC2)NC(=O)[C@H](Cc2ccc(F)cc2)N(C)C(=O)[C@H](CCc2ccc(C(F)(F)F)c(Cl)c2)NC(=O)CN(C)C(=O)[C@H](Cc2ccc(C(F)(F)F)cc2)N(C)C(=O)[C@@H]2CCN2C(=O)[C@H](C)N(C)C1=O` [Compound 1951] ([NMeA]I[NMeA][Aze][NMePhe(4-CF3)][Sar][hPhe(3-Cl-4-CF3)][NMePhe(4-F)][Ac5c][NMeI][NMeD]-NMe2; lactam N-11), 0.0099 µM. For `CC[C@H](C)[C@@H]1NC(=O)[C@H](CC(C)C)N(C)C(=O)C[C@@H](C(=O)N2CCCCC2)N(C)C(=O)[C@H](C2CCCC2)N(C)C(=O)C2(CCCC2)NC(=O)[C@@H](Cc2ccccc2)N(C)C(=O)[C@H](CCc2ccc(C(F)(F)F)c(Cl)c2)NC(=O)CN(C)C(=O)[C@H](CC2CCCCC2)N(C)C(=O)[C@@H]2CCN2C(=O)[C@H](C)N(C)C1=O` [Compound 1434] ([NMeL]I[NMeA][Aze][NMeCha][Sar][hPhe(3-Cl-4-CF3)][dNMeF][Ac5c][NMeGly(cPent)][NMeD]-Piperidide; lactam N-11) the value was 0.15 µM; for `CC[C@H](C)[C@@H]1NC(=O)[C@H](C)N(C)C(=O)C[C@@H](C(=O)N2CCCC2)N(C)C(=O)[C@H](C(C)C)N(C)C(=O)C2(CCC2)NC(=O)[C@H](Cc2ccccc2Cl)N(C)C(=O)[C@H](CCc2ccc(C(F)(F)F)c(Cl)c2)NC(=O)CN(C)C(=O)[C@H](CC2CCCCC2)N(C)C(=O)CN(C)C(=O)CN(C)C1=O` [Compound 906] ([NMeA]I[Sar][Sar][NMeCha][Sar][hPhe(3-Cl-4-CF3)][NMePhe(2-Cl)][Ac4c][NMeV][NMeD]-Pyrrolidide; lactam N-11), 0.0027 µM.
